Reference: patent US6759207B2, “Fluorogenic or fluorescent reporter molecules and their applications for whole-cell fluorescence screening assays for caspases and other enzymes and the use thereof” (Cytovia, Inc., priority 1997, dated 2004)

Columns and labels:
recombinant CPP32 = target: T1, recombinant CPP32 (Homo sapiens, UniProt P42574); experiment: Fluorometric enzyme assay, cleavage of substrate by recombinant CPP32; type: biochemical; conditions: for efficiency as substrate for CPP32: summary of Table 4; for CPP32 Vmax: 1-100 μM substrate, 37° C.
T1 construct: made in house; host or cells: Sf9 insect cells, baculovirus vector
T1 sequence (P42574 29-175 limits assumed): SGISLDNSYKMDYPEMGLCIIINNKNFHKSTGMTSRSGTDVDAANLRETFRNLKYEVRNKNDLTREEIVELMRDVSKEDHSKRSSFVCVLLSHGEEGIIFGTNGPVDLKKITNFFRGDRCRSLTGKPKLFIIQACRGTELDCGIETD
T1 sequence (P42574 176-277 limits assumed): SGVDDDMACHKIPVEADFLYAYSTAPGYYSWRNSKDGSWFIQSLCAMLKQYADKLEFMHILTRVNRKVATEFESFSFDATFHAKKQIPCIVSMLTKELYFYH
Experimental: (§1) The activities of N-(Z-VD)-N′-acetyl-Rhodamine 110, N-(Z-VAD)-N′-acetyl-Rhodamine 110, N-(Z-DEVD)-N′-acetyl-Rhodamine 110 SEQ ID NO:5, N-(Z-YVAD)-N-acetyl-Rhodamine 110 SEQ ID NO:2, (Z-VAD)2-Rhodamine 110 and (Z-YVAD)2-Rhodamine 110 SEQ ID NO:2 as synthetic substrates for recombinant CPP32 and ICE were measured in a fluorometric enzyme assay. […] See, Webb, N. R. et al., “Expression of proteins using recombinant Baculovirus,” Techniques 2:173-188 (1990). Cleavage of the synthetic substrates by the enzyme results in a fluorescent signal which is read in a spectrofluorometer or in a fluorometric microtiter plate reader. Using this assay, the Km and Vmax values were determined for each substrate with either CPP32 or ICE.
(§2) CPP32 and ICE dependent substrate cleavage was measured using the following buffer conditions: 100 mM HEPES pH 7.5, with 10% sucrose, 1% CHAPS, 5 mM glutathione, and 1-100 μM test substrate. Nonspecific enzyme cleavage was determined with the use of the specific CPP32 and ICE inhibitors consisted of an oligomer with the sequence Asp-Glu-Val-Asp or Tyr-Val-Ala-Asp, respectively, with an aldehyde group conjugated to the C-terminus. The assay for enzyme activity was typically carried out at 37° C. for 60 minutes.

recombinant ICE = target: T2, recombinant ICE (Homo sapiens, UniProt P29466); experiment: Fluorometric enzyme assay, cleavage of substrate by recombinant ICE; type: biochemical; conditions: for ICE Vmax / Km: 1-100 μM substrate, 37° C.; for Km: NA = no activity observed at 1-100 μM substrate, 3 h incubation; for efficiency as substrate for ICE: summary of Table 4
T2 construct: made in house; host or cells: Sf9 insect cells, baculovirus vector
T2 sequence (P29466 120-297 limits assumed): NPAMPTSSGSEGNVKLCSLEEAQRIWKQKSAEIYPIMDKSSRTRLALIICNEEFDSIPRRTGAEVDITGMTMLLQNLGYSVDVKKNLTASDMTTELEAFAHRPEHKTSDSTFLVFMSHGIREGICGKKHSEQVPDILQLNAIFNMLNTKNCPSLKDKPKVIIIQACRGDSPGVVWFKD
T2 sequence (P29466 317-404 limits assumed): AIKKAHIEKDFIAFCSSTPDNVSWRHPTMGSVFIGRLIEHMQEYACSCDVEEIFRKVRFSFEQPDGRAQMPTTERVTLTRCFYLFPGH
Experimental: as §1, §2

[1] = target: T3, recombinant human caspase-3 (Homo sapiens, UniProt P42574); experiment: Cleavage of caspase-3 substrates by recombinant human caspase-3; type: biochemical; conditions: for Cleavage by Caspase-3: 10 μM or 50 μM substrate, 37° C.
T3 sequence (P42574 29-175 limits assumed): T1 sequence (P42574 29-175 limits assumed)
T3 sequence (P42574 176-277 limits assumed): T1 sequence (P42574 176-277 limits assumed)
Experimental: (§3) The caspase substrates were assayed by recombinant caspase-3 and by lysates prepared from apoptotic HL-60 cells. The assays were carried out at 37° C. in 96-well plates in a 100 μL incubation containing 30 μL of caspase-3 preparation or cell lysate, 10 μM or 50 μM of the substrate, and caspase assay buffer (40 mM 1,4-piperazinebis(ethansulfonic acid) (PIPES, Aldrich Chemical Company) pH 7.2; 100 mM NaCl; 10% sucrose; 0.1% CHAPS; 1 mM EDTA; 10 mM DTT). At the end of the incubation period, the fluorescence was measured on a Bio-Tek FL500 fluorescence microplate reader using excitation and emission wavelengths of 485 and 530 nm, respectively. Two different controls were run: 1) an enzyme blank consisting of samples containing substrate, but without enzyme or cell lysate; 2) an inhibitor control, consisting of samples which contained the caspase inhibitor, Ac-DEVD-CHO (f.c., 10 μM).

[2] = tested on: apoptotic HL-60 cell lysates; experiment: Cleavage of caspase-3 substrates by apoptotic HL-60 cell lysates; type: biochemical; conditions: 10 μM or 50 μM substrate, 37° C., vinblastine treated HL-60 cell lysates
Experimental: as §3

[3] = Fluorescence and stability of N-acetyl-Rhodamine 110 compared to Rhodamine 110 (fluorometric assay); type: physicochemical
Experimental: The activities of Rhodamine 110 and N-acetyl-Rhodamine 110 as fluorescent moieties for synthetic substrates were measured in a fluorometric assay. The fluorescent signal is read in a spectrofluorometer or in a fluorometric microtiter plate reader at excitation wavelength of 485 and emission 530. Using this assay, the relative fluorescent values were determined for the two fluorescent moieties.
Fluorescence was measured using the following buffer conditions: 100 mM HEPES pH 7.5, with 10% sucrose, 1% CHAPS, 5 mM glutathione, and 1-200 nM test compound. The assay for stability was typically carried out at 37° C. for 2 days.

[4] = listed as N-Z-EVD-N′-Ethoxycarbonyl-R110

CC(C)[C@H](NC(=O)OCc1ccccc1)C(=O)N[C@@H](C)C(=O)N[C@@H](CC(=O)O)C(=O)Nc1ccc2c(c1)Oc1cc(NC(=O)[C@H](CC(=O)O)NC(=O)[C@H](C)NC(=O)[C@@H](NC(=O)OCc3ccccc3)C(C)C)ccc1C21OC(=O)c2ccccc21 [(Z-VAD)2-Rhodamine 110, (Z-Val-Ala-Asp)2-Rhodamine 110]
efficiency as substrate for CPP32 (recombinant CPP32): not for CPP32
ICE Vmax (recombinant ICE): 9 nmol/min
Km (recombinant ICE): 21 µM
efficiency as substrate for ICE (recombinant ICE): efficient substrates

CC(C)[C@H](NC(=O)[C@H](Cc1ccc(O)cc1)NC(=O)OCc1ccccc1)C(=O)N[C@@H](C)C(=O)N[C@@H](CC(=O)O)C(=O)Nc1ccc2c(c1)Oc1cc(NC(=O)[C@H](CC(=O)O)NC(=O)[C@H](C)NC(=O)[C@@H](NC(=O)[C@H](Cc3ccc(O)cc3)NC(=O)OCc3ccccc3)C(C)C)ccc1C21OC(=O)c2ccccc21 [(Z-YVAD)2-Rhodamine 110, (Z-Tyr-Val-Ala-Asp)2-Rhodamine 110]
efficiency as substrate for CPP32 (recombinant CPP32): not for CPP32
ICE Vmax (recombinant ICE): 14 nmol/min
Km (recombinant ICE): 6 µM
efficiency as substrate for ICE (recombinant ICE): efficient substrates

CC(=O)Nc1ccc2c(c1)Oc1cc(NC(=O)[C@H](CC(=O)O)NC(=O)[C@@H](NC(=O)[C@H](CCC(=O)O)NC(=O)[C@H](CC(=O)O)NC(=O)OCc3ccccc3)C(C)C)ccc1C21OC(=O)c2ccccc21 (stereo partly drawn) [N-(Z-DEVD)-N′-Ac-Rhodamine 110, N-(Z-Asp-Glu-Val-Asp)-N′-acetyl-Rhodamine 110]
CPP32 Vmax (recombinant CPP32): 160 nmol/min
efficiency as substrate for CPP32 (recombinant CPP32): efficient substrate
ICE Vmax (recombinant ICE): 9 nmol/min
Km (recombinant ICE): 12 µM
efficiency as substrate for ICE (recombinant ICE): efficient substrate

CC(=O)Nc1ccc2c(c1)Oc1cc(NC(=O)C(CC(=O)O)NC(=O)C(C)NC(=O)C(NC(=O)OCc3ccccc3)C(C)C)ccc1C21OC(=O)c2ccccc21 (stereo not drawn) [N-(Z-VAD)-N′-Ac-Rhodamine 110, N-(Z-Val-Ala-Asp)-N′-acetyl-Rhodamine 110]
efficiency as substrate for CPP32 (recombinant CPP32): not for CPP32
ICE Vmax (recombinant ICE): 4 nmol/min
Km (recombinant ICE): 70 µM
efficiency as substrate for ICE (recombinant ICE): efficient substrates

CC(=O)Nc1ccc2c(c1)Oc1cc(NC(=O)C(CC(=O)O)NC(=O)C(NC(=O)OCc3ccccc3)C(C)C)ccc1C21OC(=O)c2ccccc21 (stereo not drawn) [N-(Z-VD)-N′-Ac-Rhodamine 110, N-(Z-Val-Asp)-N′-acetyl-Rhodamine 110]
CPP32 Vmax (recombinant CPP32): 11 nmol/min
efficiency as substrate for CPP32 (recombinant CPP32): efficient substrate
efficiency as substrate for ICE (recombinant ICE): not for ICE

CC(=O)Nc1ccc2c(c1)Oc1cc(NC(=O)[C@H](CC(=O)O)NC(=O)[C@H](C)NC(=O)[C@@H](NC(=O)[C@H](Cc3ccc(O)cc3)NC(=O)OCc3ccccc3)C(C)C)ccc1C21OC(=O)c2ccccc21 (stereo partly drawn) [N-(Z-YVAD)-N′-Ac-Rhodamine 110, N-(Z-Tyr-Val-Ala-Asp)-N′-acetyl-Rhodamine 110]
efficiency as substrate for CPP32 (recombinant CPP32): not for CPP32
ICE Vmax (recombinant ICE): 96 nmol/min
Km (recombinant ICE): 32 µM
efficiency as substrate for ICE (recombinant ICE): efficient substrates

CCSC(=O)Nc1ccc2c(c1)Oc1cc(NC(=O)[C@H](CC(=O)O)NC(=O)[C@@H](NC(=O)[C@H](CCC(=O)O)NC(=O)[C@H](CC(=O)O)NC(C)=O)C(C)C)ccc1C21OC(=O)c2ccccc21 (stereo partly drawn) [N-Ac-DEVD-N′-(ethylthio)carbonyl-R110, N-(Ac-Asp-Glu-Val-Asp)-N′-(ethylthio)carbonyl-Rhodamine 110]
Cleavage by Caspase-3 [1]: Good
Cleavage by Apoptotic Lysates [2]: Good

CCOC(=O)Nc1ccc2c(c1)Oc1cc(NC(=O)[C@H](CC(=O)O)NC(=O)[C@@H](NC(=O)[C@H](CCC(=O)O)NC(=O)[C@H](CC(=O)O)NC(C)=O)C(C)C)ccc1C21OC(=O)c2ccccc21 (stereo partly drawn) [N-Ac-DEVD-N′-ethoxycarbonyl-R110, N-(Ac-Asp-Glu-Val-Asp)-N′-ethoxycarbonyl-Rhodamine 110]
Cleavage by Caspase-3 [1]: Good
Cleavage by Apoptotic Lysates [2]: Good

CCCCCCOC(=O)Nc1ccc2c(c1)Oc1cc(NC(=O)[C@H](CC(=O)O)NC(=O)[C@@H](NC(=O)[C@H](CCC(=O)O)NC(=O)[C@H](CC(=O)O)NC(C)=O)C(C)C)ccc1C21OC(=O)c2ccccc21 (stereo partly drawn) [N-Ac-DEVD-N′-hexyloxycarbonyl-R110, N-(Ac-Asp-Glu-Val-Asp)-N′-hexyloxycarbonyl-Rhodamine-110]
Cleavage by Caspase-3 [1]: Good
Cleavage by Apoptotic Lysates [2]: Good

CCOC(=O)Nc1ccc2c(c1)Oc1cc(NC(=O)[C@H](CC(=O)O)NC(=O)[C@@H](NC(=O)[C@H](CCC(=O)O)NC(=O)[C@H](CC(=O)O)NC(=O)OCc3ccccc3)C(C)C)ccc1C21OC(=O)c2ccccc21 (stereo partly drawn) [N-Z-DEVD-N′-ethoxycarbonyl-R110, N-(Cbz-Asp-Glu-Val-Asp)-N′-ethoxycarbonyl-Rhodamine 110]
Cleavage by Caspase-3 [1]: Good
Cleavage by Apoptotic Lysates [2]: Good

CCOC(=O)Nc1ccc2c(c1)Oc1cc(NC(=O)C(CC(=O)O)NC(=O)C(NC(=O)C(CCC(=O)O)NC(=O)OCc3ccccc3)C(C)C)ccc1C21OC(=O)c2ccccc21 (stereo not drawn) [N-Z-EVD-N′-ethoxycarbonyl-R110]
Cleavage by Caspase-3 [1]: Fair
Cleavage by Caspase-3 [1, 4]: cleaved efficiently
Cleavage by Apoptotic Lysates [2]: Fair
Cleavage by Apoptotic Lysates [2, 4]: cleaved efficiently

CCOC(=O)Nc1ccc2c(c1)Oc1cc(NC(=O)[C@H](CC(=O)O)NC(=O)[C@@H](NC(=O)OCc3ccccc3)C(C)C)ccc1C21OC(=O)c2ccccc21 (stereo partly drawn) [N-Z-VD-N′-ethoxycarbonyl-R110, N-(Cbz-Val-Asp)-N′-Ethoxycarbonyl-Rhodamine 110]
Cleavage by Caspase-3 [1]: the signal was low and Poor
amount of recombinant caspase-3 required for cleavage relative to tri- and tetrapeptide substrates ([1]; FIG. 2A): 50 fold
Cleavage by Apoptotic Lysates [2]: Poor

CC(=O)Nc1ccc2c(c1)Oc1cc(N)ccc1C21OC(=O)c2ccccc21 (stereo not drawn) [N-acetyl Rhodamine 110, N-Acetyl-Rhodamine 110]
stability and efficiency as fluorescent indicator ([3]; 37° C. for 2 days): stable and efficient fluorescent indicator
ratio of fluorescent signal (Rhodamine 110/N-acetyl Rhodamine 110) ([3]; after two days incubation at 37° C.): 10.1
ratio of fluorescent signal (Rhodamine 110/N-acetyl Rhodamine 110) ([3]; time zero, excitation 485, emission 530, HEPES pH 7.5 buffer): 10.2
